Measurements as given in patent US20240349726A1, “SUBSTITUTED 1,2,4-THIADIAZOLYL NICOTINAMIDES, SALTS OR N-OXIDES THEREOF AND THEIR USE AS HERBICIDALLY ACTIVE SUBSTANCES” (Bayer Aktiengesellschaft, priority 2021, published 2024).

Columns and labels:
Format in all cases: in vivo
[1] = test system: Kochia scoparia; assay: Herbicidal pre-emergence action, KCHSC; conditions: visual grading after ca. 3 weeks vs untreated controls
Description: (§1) Seeds of mono- and dicotyledonous weed plants were sown in plastic pots (double sowings with one species of mono- and one species of dicotyledonous weed plants per pot), in sandy loam, and covered with soil. The compounds according to the invention, formulated in the form of wettable powders (WP) or as emulsifiable concentrates (EC), were applied to the surface of the covering soil as an aqueous suspension or as an emulsion, with the addition of 0.5% of an additive, at an application rate of 600 litres of water per hectare (converted). Following treatment, the pots were placed in a greenhouse and kept under optimum growth conditions for the test plants. The visual grading of the damage to the test plants is carried out after ca. 3 weeks in comparison to untreated controls (herbicidal effect in percent (%): 100% effect=plants have died, 0% effect=as control plants). Seeds of mono- and dicotyledonous weed plants were sown in plastic pots (double sowings with one species of mono- and one species of dicotyledonous weed plants per pot), in sandy loam, and covered with soil. The compounds according to the invention, formulated in the form of wettable powders (WP) or as emulsifiable concentrates (EC), were applied to the surface of the covering soil as an aqueous suspension or as an emulsion, with the addition of 0.5% of an additive, at an application rate of 600 litres of water per hectare (converted). Following treatment, the pots were placed in a greenhouse and kept under optimum growth conditions for the test plants. The visual grading of the damage to the test plants is carried out after ca. 3 weeks in comparison to untreated controls (herbicidal effect in percent (%): 100% effect=plants have died, 0% effect=as control plants).

[2] = test system: Lolium rigidum; assay: Herbicidal pre-emergence action, LOLRI; conditions: visual grading after ca. 3 weeks vs untreated controls
Description: as §1

[3] = test system: Matricaria inodora; assay: Herbicidal pre-emergence action, MATIN; conditions: visual grading after ca. 3 weeks vs untreated controls
Description: as §1

[4] = test system: Stellaria media; assay: Herbicidal pre-emergence action, STEME; conditions: visual grading after ca. 3 weeks vs untreated controls
Description: as §1

[5] = test system: Veronica persica; assay: Herbicidal pre-emergence action, VERPE; conditions: visual grading after ca. 3 weeks vs untreated controls
Description: as §1

[6] = test system: Poa annua; assay: Herbicidal pre-emergence action, POAAN; conditions: visual grading after ca. 3 weeks vs untreated controls
Description: as §1

[7] = test system: Amaranthus retroflexus; assay: Herbicidal pre-emergence action, AMARE; conditions: visual grading after ca. 3 weeks vs untreated controls
Description: as §1

[8] = test system: Abutilon theophrasti; assay: Herbicidal post-emergence action, ABUTH; conditions: 1280 g/ha, assessed visually after ca. 3 weeks vs untreated controls
Description: (§2) Seeds of mono- and dicotyledonous weed plants were sown in plastic pots (double sowings with one species of mono- and one species of dicotyledonous weed plants per pot), in sandy loam, covered with soil and grown under controlled growth conditions. 2 to 3 weeks after sowing, the test plants were sprayed in the single-leaf stage. The compounds according to the invention, formulated in the form of wettable powders (WP) or as emulsifiable concentrates (EC), were sprayed onto the green plant parts as an aqueous suspension or as an emulsion, with the addition of 0.5% of an additive, at an application rate of 600 litres of water per hectare (converted). The test plants were placed in the greenhouse for ca. 3 weeks under optimum growth conditions, and then the effect of the preparations is assessed visually in comparison with untreated controls (herbicidal effect in percent (%): 100% effect=plants have died, 0% effect=as control plants). […]

[9] = test system: Alopecurus myosuroides; assay: Herbicidal post-emergence action, ALOMY; conditions: assessed visually after ca. 3 weeks vs untreated controls
Description: as §2

[10] = test system: Kochia scoparia; assay: Herbicidal post-emergence action, KCHSC; conditions: assessed visually after ca. 3 weeks vs untreated controls
Description: as §2

[11] = test system: Lolium rigidum; assay: Herbicidal post-emergence action, LOLRI; conditions: assessed visually after ca. 3 weeks vs untreated controls
Description: as §2

[12] = test system: Matricaria inodora; assay: Herbicidal post-emergence action, MATIN; conditions: assessed visually after ca. 3 weeks vs untreated controls
Description: as §2

[13] = test system: Setaria viridis; assay: Herbicidal post-emergence action, SETVI; conditions: 1280 g/ha, assessed visually after ca. 3 weeks vs untreated controls
Description: (§3) Seeds of mono- and dicotyledonous weed plants were sown in plastic pots (double sowings with one species of mono- and one species of dicotyledonous weed plants per pot), in sandy loam, covered with soil and grown under controlled growth conditions. 2 to 3 weeks after sowing, the test plants were sprayed in the single-leaf stage. The compounds according to the invention, formulated in the form of wettable powders (WP) or as emulsifiable concentrates (EC), were sprayed onto the green plant parts as an aqueous suspension or as an emulsion, with the addition of 0.5% of an additive, at an application rate of 600 litres of water per hectare (converted). The test plants were placed in the greenhouse for ca. 3 weeks under optimum growth conditions, and then the effect of the preparations is assessed visually in comparison with untreated controls (herbicidal effect in percent (%): 100% effect=plants have died, 0% effect=as control plants).

[14] = test system: Stellaria media; assay: Herbicidal post-emergence action, STEME; conditions: assessed visually after ca. 3 weeks vs untreated controls
Description: as §2

[15] = test system: Veronica persica; assay: Herbicidal post-emergence action, VERPE; conditions: assessed visually after ca. 3 weeks vs untreated controls
Description: as §2

[16] = test system: Poa annua; assay: Herbicidal post-emergence action, POAAN; conditions: assessed visually after ca. 3 weeks vs untreated controls
Description: as §2

[17] = test system: Amaranthus retroflexus; assay: Herbicidal post-emergence action, AMARE; conditions: assessed visually after ca. 3 weeks vs untreated controls
Description: as §2

[18] = test system: Alopecurus myosuroides; assay: Herbicidal pre-emergence action, ALOMY; conditions: 1280 g/ha, visual grading after ca. 3 weeks vs untreated controls
Description: (§4) Seeds of mono- and dicotyledonous weed plants were sown in plastic pots (double sowings with one species of mono- and one species of dicotyledonous weed plants per pot), in sandy loam, and covered with soil. The compounds according to the invention, formulated in the form of wettable powders (WP) or as emulsifiable concentrates (EC), were applied to the surface of the covering soil as an aqueous suspension or as an emulsion, with the addition of 0.5% of an additive, at an application rate of 600 litres of water per hectare (converted). Following treatment, the pots were placed in a greenhouse and kept under optimum growth conditions for the test plants. The visual grading of the damage to the test plants is carried out after ca. 3 weeks in comparison to untreated controls (herbicidal effect in percent (%): 100% effect=plants have died, 0% effect=as control plants).

[19] = test system: Echinochloa crus-galli; assay: Herbicidal pre-emergence action, ECHCG; conditions: 1280 g/ha, visual grading after ca. 3 weeks vs untreated controls
Description: as §4

[20] = test system: Setaria viridis; assay: Herbicidal pre-emergence action, SETVI; conditions: 1280 g/ha, visual grading after ca. 3 weeks vs untreated controls
Description: as §4

[21] = test system: Abutilon theophrasti; assay: Herbicidal pre-emergence action, ABUTH; conditions: 1280 g/ha, visual grading after ca. 3 weeks vs untreated controls
Description: as §4

[22] = test system: Echinochloa crus-galli; assay: Herbicidal post-emergence action, ECHCG; conditions: 1280 g/ha, assessed visually after ca. 3 weeks vs untreated controls
Description: as §3

[23] = test system: Digitaria sanguinalis; assay: Herbicidal pre-emergence action, DIGSA; conditions: 1280 g/ha, visual grading after ca. 3 weeks vs untreated controls
Description: as §4

| SMILES | herbicidal effect KCHSC ([1]; 1280 g/ha) [%] | herbicidal effect LOLRI ([2]; 1280 g/ha) [%] | herbicidal effect MATIN ([3]; 320 g/ha) [%] | herbicidal effect MATIN ([3]; 1280 g/ha) [%] | herbicidal effect STEME ([4]; 320 g/ha) [%] | herbicidal effect STEME ([4]; 1280 g/ha) [%] | herbicidal effect POAAN ([6]; 1280 g/ha) [%] | herbicidal effect AMARE ([7]; 1280 g/ha) [%] | herbicidal effect KCHSC ([10]; 1280 g/ha) [%] | herbicidal effect LOLRI ([11]; 1280 g/ha) [%] | herbicidal effect MATIN ([12]; 320 g/ha) [%] | herbicidal effect MATIN ([12]; 1280 g/ha) [%] | herbicidal effect SETVI [13] [%] | herbicidal effect STEME ([14]; 320 g/ha) [%] | herbicidal effect STEME ([14]; 1280 g/ha) [%] | herbicidal effect VERPE ([15]; 320 g/ha) [%] | herbicidal effect VERPE ([15]; 1280 g/ha) [%] | herbicidal effect POAAN ([16]; 320 g/ha) [%] | herbicidal effect POAAN ([16]; 1280 g/ha) [%] | herbicidal effect AMARE ([17]; 1280 g/ha) [%] | further results |
| --- | --- | --- | --- | --- | --- | --- | --- | --- | --- | --- | --- | --- | --- | --- | --- | --- | --- | --- | --- | --- | --- |
| O=C(Nc1ncns1)c1c(C(F)(F)F)ccnc1F [Example I-002] | 90 | 100 | 90 | 100 | 100 | 100 | 100 | 90 | 100 | 100 | 90 | 100 | 90 | 100 | 100 | 100 | 100 | 100 | 100 | 100 | herbicidal effect LOLRI ([2]; 320 g/ha): 100%; herbicidal effect VERPE ([5]; 320 g/ha): 90%; herbicidal effect VERPE ([5]; 1280 g/ha): 100%; herbicidal effect POAAN ([6]; 320 g/ha): 100%; herbicidal effect ABUTH [8]: 90%; herbicidal effect ALOMY ([9]; 320 g/ha): 100%; herbicidal effect ALOMY ([9]; 1280 g/ha): 100%; herbicidal effect KCHSC ([10]; 320 g/ha): 100%; herbicidal effect LOLRI ([11]; 320 g/ha): 90% |
| O=C(Nc1nc(Cl)ns1)c1c(C(F)(F)F)ccnc1F [Example I-009, N-(3-chloro-1,2,4-thiadiazol-5-yl)-2-fluoro-4-(trifluoromethyl)pyridine-3-carboxamide] | 100 | 90 | 100 | 100 | 100 | 100 | 90 | 100 | 100 | 90 | 100 | 100 | 90 | 100 | 100 | 100 | 100 | 90 | 100 | 100 | herbicidal effect ALOMY [18]: 100%; herbicidal effect ECHCG [19]: 90%; herbicidal effect KCHSC ([1]; 320 g/ha): 90%; herbicidal effect SETVI [20]: 90%; herbicidal effect VERPE ([5]; 1280 g/ha): 90%; herbicidal effect AMARE ([7]; 320 g/ha): 90%; herbicidal effect ABUTH [8]: 90%; herbicidal effect ALOMY ([9]; 320 g/ha): 90%; herbicidal effect ALOMY ([9]; 1280 g/ha): 100%; herbicidal effect KCHSC ([10]; 320 g/ha): 100%; herbicidal effect AMARE ([17]; 320 g/ha): 100% |
| CC(C)c1ccnc(F)c1C(=O)Nc1ncns1 [Example I-025] | 90 | 100 | 100 | 100 | 90 | 90 | – | 100 | – | 90 | – | 90 | – | 90 | 90 | – | 90 | – | – | 100 | herbicidal effect LOLRI ([2]; 320 g/ha): 90%; herbicidal effect SETVI [20]: 90%; herbicidal effect AMARE ([7]; 320 g/ha): 90%; herbicidal effect ABUTH [21]: 100%; herbicidal effect AMARE ([17]; 320 g/ha): 90%; herbicidal effect ECHCG [22]: 90% |
| O=C(Nc1ncns1)c1c(C(F)(F)F)ccnc1C1CC1 [Example I-005] | 100 | 100 | – | 100 | 100 | 100 | 100 | 100 | 90 | – | – | – | – | 90 | 90 | 100 | 100 | 100 | 100 | – | herbicidal effect POAAN ([6]; 320 g/ha): 100%; herbicidal effect DIGSA [23]: 90% |
| O=C(Nc1nc(Cl)ns1)c1cnccc1C(F)(F)F [Example I-015] | 90 | – | – | – | – | – | – | – | 90 | – | 90 | 100 | 90 | 100 | 100 | 90 | 90 | – | – | 100 | – |
